Patent US5221675A, “Aza-spirocyclic compounds that enhance cholinergic neurotransmission” (Abbott Laboratories, priority 1991, dated 1993)

Columns and labels:
[1] = target: neuronal nicotinic cholinergic receptor; experiment: [3H]-MCC binding to nicotinic receptors in whole rat brain membranes; conditions: for Ki: Table 3, [3H]-MCC, rat brain membranes, 4° C., read-out: Nic Ki (binding to the nicotinic receptor); for Nic % Enhancement @ Max. Effect: at 0.0001 (mM) as printed; for Nic Conc. @ Max. Effect: concentration giving maximal enhancement of [3H]-MCC binding; for Affinity for M1/M2 muscarinic and nicotinic neuronal binding sites: muscarinic (M1 or M2) and nicotinic; for Affinity for M1/M2 muscarinic and nicotinic neuronal binding sites / Binding of other nicotinic ligands to the neuronal nicotinic receptor: words
Procedure: Binding of [^3 H]methylcarbamylcholine ([^3 H]-MCC) to nicotinic receptors is accomplished using crude synaptic membranes prepared from whole rat brain (Snyder and Enna, Brain Res. 1975, 100:81). Washed membranes are stored at -80° C. prior to use. Frozen aliquots are slowly thawed and resuspended in 20 volumes of buffer (containing: 120 mM NaCl, 5 mM KCl, 2 mM MgCl2, 2 mM CaCl2, and 50 mM Tris-Cl, pH 7.4 @4° C.). After centrifuging at 20K×9 for 15 minutes, the pellets are resuspended in 30 volumes of buffer. Homogenate ([…]) is added to triplicate tubes containing concentrations of test compound and [^3 H]-MCC (3 nM) in a final volume of […]. Samples are incubated for 60 minutes at 4° C., then rapidly filtered through Whatman GF/B filters presoaked in 0.5% polyethylimine using 3×4 ml of ice-cold buffer. The filters are counted in 4 mL of Ecolume (ICN). Nonspecific binding is determined in the presence of 10 […] and values were expressed as a percentage of total binding. IC50 values are determined with the ALLFIT curve-fitting program and IC50 values are converted to Ki values using the Cheng and Prusoff correction, (Ki=IC50 /(1+[ligand]/Kd ligand). Alternatively, data are expressed as a percentage of the total specific binding.

male Sprague-Dawley rats = experiment: Mean arterial pressure, resting CBF and basal forebrain-elicited cortical CBF (laser-Doppler flowmetry); assay type: in vivo, rat
Procedure: General Surgery for CBF Measurement--Methods for surgical preparation of rats for electrical stimulation of brain and measurement of rCBF have been previously described (Nakai et al., Am. J. Physiol. 1982, 243:226) and are summarized below.
Studies are conducted on male Sprague-Dawley rats that are maintained in a thermally controlled (26°-27° C.) light-cycled (07.00 hour on-019.00 hour off) environment, fed standard rat chow and given water ad libitum. Anesthesia is induced with halothane (3.5%; balance 02) delivered through a nose mask and maintained at 2% during the initial surgery. Thin-wall vinyl catheters (o.d.=0.03 inch) are placed in each femoral artery and vein, and the trachea is cannulated.
Animals are subsequently co-anesthetized with urethane (1.5 g/kg, s.c.) and placed in a stereotaxic frame with the head positioned so that the floor of the IVth ventricle was horizontal (incisor bar position: -11 mm.). After connecting the tracheal cannula to a small-animal respirator, the animals are paralyzed with d-tubocurarine (0.6 mg/kg/h, i.m.), and ventilated (80 cpm) with 100% 02. Arterial pressure (AP) and heart rate (HR) are continuously monitored through one of the arterial catheters connected to a Statham P23Db transducer that is coupled to a chart recorder. The level of anesthesia during surgery or subsequent experimental testing is assessed by the AP response to tail pinch, with increasing levels of arousal giving rise to irregular AP readings. Booster doses of urethane (250 mg/kg, s.c.) are given as needed.
Bilateral craniotomies (approximately 4 mm×11 mm) are performed overlying the frontoparietal cortices taking care to leave the dura intact. Halothane is delivered at a reduced rate of 1% during cranial surgery and discontinued afterward. A small volume (about 0.2 ml) of arterial blood is sampled after completion of all surgery for measurement of PO2, PCO2 and pH by a blood gas analyzer. Arterial blood gases are maintained so that PO2 was greater than 100 mm Hg, PCO2 =33-38 mm Hg, and pH=7.35-7.45. Maintaining these values is accomplished by adjusting the stroke volume of the ventilator. Once appropriate physiological parameters are obtained (approximately 30 min), the experimental protocol is initiated.
Electrical Stimulation of the Basal Forebrain (BF)--The BF is stimulated with cathodal current delivered through a stainless steel concentric bipolar electrode ([…]) made by Rhodes Medical Instruments (Model SNEX-100). Electrical pulses are generated by a square wave stimulator (Grass, Model S-88) and constant current is passed through a photoelectric stimulus-isolation unit (Grass, Model PSIU6). The stimulus current is measured on an oscilloscope by continuously displaying the voltage drop across a 10-ohm resistor.
The procedure for eliciting an increased cortical CBF response requires the stereotaxic placement of the stimulating electrode into the BF. For positioning, the electrode is inclined posteriorly to 18 degrees, and the stereotaxic coordinates used were 5.0 mm posterior to, and 2.6 mm lateral to bregma (stereotaxic zero reference point). […] These parameters have been shown previously to elicit maximal increases in cortical CBF (Arneric, Excerpta Medica International Congress Series, Vol. 869:381, 1989). The region of the BF that selectively affects cortical CBF is restricted, with electrode movements of 0.5 mm dorsal or ventral to this site eliciting potent vasodepressor responses in addition to the increases in CBF. […] When CBF increases of approximately 100% or greater are repeatedly obtained in the absence of significant changes in AP (<10 mm Hg) or HR (<10 beats/min.), and when the perfusion rate is stable in the absence of BF stimulation, the experimental testing is started.
CBF Measurement with Laser--Dopler Flowmetry (LDF)--The principles and technical aspects of LDF are presented in detail elsewhere (Bonner et al., Appl. Opt. 1981, 20:2097; Stern et al., Am. J. Physiol. 1977, 232:H441). […]

M2 muscarinic receptor = M2 muscarinic receptor (Rattus norvegicus, UniProt P10980); assay type: binding; conditions: read-out: M2 Ki; Table 3
Chain of M2 muscarinic receptor (P10980 whole entry): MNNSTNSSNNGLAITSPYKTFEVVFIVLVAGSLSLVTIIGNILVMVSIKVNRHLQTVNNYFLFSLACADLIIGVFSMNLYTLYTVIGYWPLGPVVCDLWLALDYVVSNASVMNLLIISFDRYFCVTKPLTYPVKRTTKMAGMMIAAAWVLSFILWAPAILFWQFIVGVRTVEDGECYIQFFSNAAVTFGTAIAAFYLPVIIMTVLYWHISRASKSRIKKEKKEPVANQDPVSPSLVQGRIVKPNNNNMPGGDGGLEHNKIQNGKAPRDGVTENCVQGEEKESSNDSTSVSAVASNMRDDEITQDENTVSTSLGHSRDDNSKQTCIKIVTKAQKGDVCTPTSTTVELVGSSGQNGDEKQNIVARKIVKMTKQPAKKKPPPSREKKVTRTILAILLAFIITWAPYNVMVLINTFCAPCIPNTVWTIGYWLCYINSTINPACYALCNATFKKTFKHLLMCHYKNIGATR

M1 muscarinic receptor = target: T1, M1 muscarinic receptor (Rattus norvegicus, UniProt P08482); experiment: Competition with [3H]pirenzepine at cortical M1 muscarinic receptors; assay type: binding; conditions: Table 3; read-out: M1 Ki
T1 construct: from tissue; host or cells: adult rat fronto-parietal cortex membranes (homogenate)
T1 sequence (P08482 1-460): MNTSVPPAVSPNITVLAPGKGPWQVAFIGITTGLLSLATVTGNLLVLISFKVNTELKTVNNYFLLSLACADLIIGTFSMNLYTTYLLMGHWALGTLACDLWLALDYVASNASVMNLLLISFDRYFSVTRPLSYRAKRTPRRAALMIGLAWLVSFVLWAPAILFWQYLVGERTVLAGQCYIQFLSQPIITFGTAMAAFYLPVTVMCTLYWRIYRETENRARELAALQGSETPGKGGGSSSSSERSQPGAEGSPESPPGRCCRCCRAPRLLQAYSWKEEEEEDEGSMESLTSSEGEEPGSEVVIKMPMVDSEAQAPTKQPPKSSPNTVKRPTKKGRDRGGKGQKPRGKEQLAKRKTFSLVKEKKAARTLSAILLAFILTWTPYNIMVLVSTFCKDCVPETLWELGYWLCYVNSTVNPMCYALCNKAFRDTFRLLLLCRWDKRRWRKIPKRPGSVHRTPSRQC

[2] = in vivo; cited from earlier work
[3] = tested on: Rat striatal muscarinic receptors; experiment: Agonist intrinsic activity: inhibition of forskolin-activated [3H]cAMP in dissociated rat striatum; assay type: cell-based; conditions: selective muscarinic antagonist
Source text: Rat striatal muscarinic receptors are coupled to the inhibition of the conversion of adenosine triphosphate (ATP) to cyclic adenosine monophosphate (cAMP). […] The ATP stores in dissociated rat striatum were labeled with [^3 H]adenine and [^3 H]-cAMP levels were elevated with 10 um forskolin.

[4] = 0.01 mg/kg, iv, mean of three experiments

| Structure (SMILES) | Ki [1] | Nic % Enhancement @ Max. Effect [1] | Nic Conc. @ Max. Effect [1] | Affinity for M1/M2 muscarinic and nicotinic neuronal binding sites [1] | Binding of other nicotinic ligands to the neuronal nicotinic receptor [1] | Ki (M2 muscarinic receptor) | Ki (M1 muscarinic receptor) | also measured |
| --- | --- | --- | --- | --- | --- | --- | --- | --- |
| CN1C(=O)N(c2ccccc2)C2(CCNCC2)C1=O.Cl [Example 3, 3-Methyl-1-phenyl-1,3,8-triazaspiro[4,5]decane-2,4-dione hydrochloride] | > 100 µM | +42% | 0.0001 mM | little affinity | potently enhance the binding of other nicotinic ligands | > 100 µM | > 100 µM | BF-Elicited CBF Response, % Change from Pre-Drug CONTROL (male Sprague-Dawley rats; [4]): +39%; MAP, % Change from Pre-Drug CONTROL (male Sprague-Dawley rats; [4]): +5%; Resting CBF, % Change from Pre-Drug CONTROL (male Sprague-Dawley rats; [4]): +23%; Effects on MAP (male Sprague-Dawley rats; 0.01-10.0 mg/kg iv): No remarkable effects on MAP; Effects on blood pressure (male Sprague-Dawley rats; iv): no overt effects on blood pressure; Resting CBF and BF-elicited CBF response (male Sprague-Dawley rats; low concentrations, iv, words): effective in enhancing resting CBF and the BF-elicited CBF response |
| CN1CCC2(CC1)C(=O)N(C)C(=O)N2c1ccccc1 [Example 4, 3,8-Dimethyl-1-phenyl-1,3,8-triazaspiro[4,5]decane-2,4-dione] | > 100 µM | +33% | 0.0001 mM | little affinity | potently enhance the binding of other nicotinic ligands | > 100 µM | 28 µM | – |
| COC(=O)C1=CCCN(C)C1 [arecoline] | – | – | – | – | – | – | – | Pharmacokinetics [2]: unfavorable pharmacokinetics |
| CN1[C@@H]2CC[C@H]1C[C@@H](OC(=O)C(CO)c1ccccc1)C2 (some centres unmarked) [atropine, reference compound] | – | – | – | – | – | – | – | Blockade of all agonist responses [3]: fully blocked |
| C[N+](C)(C)CCOC(N)=O [carbachol] | – | – | – | – | – | – | – | CNS penetration [2]: poor CNS penetration |
